Where two headings read alike, the source gives them in different places. Marks after values point to notes of the source that are not given here.
Tests used:
[1] = molecular target: T1, RhlR (Pseudomonas aeruginosa, UniProt P54292); assay: E. coli (JLD271) RhlR reporter antagonism assay, in competition with BHL; assay type: cell-based; settings: for activity profile in RhlR: E. coli RhlR reporter dose-response curves; for max. RhlR inhibition (%): E. coli RhlR reporter, BHL at 10 μM set to 0%, media control set to 100%
T1 construct: expressed in transfected cells; host or cells: E. coli JLD271 (K-12 ΔlacX74 sdiA271::Cam) carrying pJN105-R2 (RhlR expression) and pSC11-rhlI (rhlI'-lacZ reporter)
T1 sequence (P54292 whole entry): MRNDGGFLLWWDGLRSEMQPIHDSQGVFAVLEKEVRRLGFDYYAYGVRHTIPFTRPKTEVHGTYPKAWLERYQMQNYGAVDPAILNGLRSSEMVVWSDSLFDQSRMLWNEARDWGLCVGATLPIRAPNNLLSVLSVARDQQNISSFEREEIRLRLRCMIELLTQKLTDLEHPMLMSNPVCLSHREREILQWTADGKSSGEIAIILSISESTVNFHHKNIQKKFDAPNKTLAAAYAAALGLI
Protocol: (§1) To start, the sulfonyl HLs were evaluated for their ability to antagonize RhlR using a previously described E. coli strain (JLD271) harboring a RhlR expression plasmid and a rhlI reporter plasmid. This E. coli reporter produces RhlR, and protein activity in the presence of an added small molecule can be measured via the production of β-galactosidase as quantified via luminescence (see Methods). Compounds were screened in competition against RhlR’s native ligand, BHL (at its EC50 value in this strain, 10 μM), over a range of concentrations to generate antagonism dose–response curves (see Supporting Information) and calculate IC50 values (listed in Table ). A small set of compounds was also screened for RhlR agonism in the E. coli reporter; the agonism assay format was identical to the antagonism assay, except no BHL was added.
(§2) RhlR activity in E. coli strain JLD271 (ΔsdiA) was measured via a β-galactosidase reporter (rhI-lacZ) using the Promega Beta-Glo Assay System as previously described. RhlR activity in P. aeruginosa PA14 (ΔrhlIΔlasI) was measured via a GFP reporter (rhlA-gfp). […] See Supporting Information for both reporter protocols.
(§3) Supporting Information — Aguirre-Figueroa et al.
(§4) E. coli and P. aeruginosa RhlR reporter assay protocols.
(§5) E. coli RhlR reporter assay. RhlR activity in E. coli strain JLD271 (ΔsdiA) was measured via a β-galactosidase reporter using the Promega Beta-Glo® Assay System as previously described.10 A schematic of the reporter plasmids and assay protocol is shown in Scheme S1. Briefly, a single colony of E. coli JLD271 harboring the RhlR expression plasmid pJN105-R and the rhlI-lacZ transcriptional fusion reporter pSC11-R (Table S1) was grown in LB medium with 100 μg/mL ampicillin and 10 μg/mL gentamicin overnight (~16 h). The culture was diluted 1:10 in fresh LB medium and grown to an OD600 = 0.25 (0.23–0.28) (~0.5 h). Arabinose was added to a final concentration of 4 mg/mL to induce the expression of pJN105-R. Aliquots (2 μL) of compound DMSO stock solution or serial dilution were added to the inner wells (i.e., non-periphery rows) of a 96-well microtiter plate. To six inner wells, DMSO alone (vehicle) was added as a negative control. For agonism assays, BHL was added to six inner wells as a positive control (to achieve 1 mM). For antagonism assays, BHL was added to six inner wells as a positive control and to all of the other sample wells except for the vehicle control wells (to achieve 10 μM ). Subculture (198 μL) was then dispensed into each inner well. To the outer (periphery) wells, 200 μL of water were added to maintain humidity during incubation. Plates were then incubated for 4 h (shaking) at 37 °C.
Scheme S1. Schematic of E. coli reporter plasmids and assay. (A) Representation of plasmids used in the heterologous reporter system. (B) General reporter assay workflow. BioRender used in […]
After the incubation period, the OD600 of each well was measured using a plate reader. Cell dilution plates were prepared by transferring 10 μL from the incubated culture plate wells to a fresh 96-well plate and adding 90 μL of 18 MΩ water to each well. Next, 10 μL aliquots of diluted Beta-Glo® reagent (1:2 with 18 MΩ water) were added to each well of a white 384-well microtiter plate, followed by 10 μL of culture from each well of the dilution plate. The 384-well plate was incubated (without shaking; i.e., static) for 30 min at 30 °C. After incubation, luminescence of each well was measured using a plate reader. To determine levels of RhlR activity, raw luminescence was divided by OD600 to correct for growth variation and then normalized to the negative (0%) and positive (100%) control wells.
Dose-response reporter assay data for compounds in the E. coli RhlR reporter.
Dose-response curves for RhlR antagonism by compounds against 10 μM BHL using the E. coli JLD271 RhlR reporter are provided below. Compound names are indicated on the x-axis of each plot.
All assays performed in triplicate as at least three separate biological replicates. […]

[2] = molecular target: T1, RhlR; assay: E. coli (JLD271) RhlR reporter agonism assay (no BHL added); assay type: cell-based; settings: for Emax: read-out: Max Activation (RhlR), E. coli JLD271 RhlR reporter, no BHL added, high concentrations
Protocol: as §1, §2, §3, §4
as §5, with “Subculture (198 μL) was then dispensed into each inner well. To the outer (periphery) wells, 200 μL of water were added to maintain humidity during incubation. Plates were then incubated for 4 h (shaking) at 37 °C.” left out
After the incubation period, the OD600 of each well was measured using a plate reader. […] After incubation, luminescence of each well was measured using a plate reader. To determine levels of RhlR activity, raw luminescence was divided by OD600 to correct for growth variation and then normalized to the negative (0%) and positive (100%) control wells. […]

[3] = system: other LuxR homologues; parameters: method as in Kim et al.; settings: ref Kim et al.; cited from earlier work
[4] = molecular target: T1, RhlR; assay: P. aeruginosa RhlR reporter agonism assay; assay type: cell-based
Protocol: as §2, §3
P. aeruginosa RhlR reporter assay. RhlR activity in P. aeruginosa PA14 ΔrhlIΔlasI was measured via a GFP reporter. Briefly, a single colony of P. aeruginosa strain PA14 ΔrhlIΔlasI harboring the transcriptional fusion reporter pPROBE-GT rhlA-GFP (Table S1) was grown in LB medium with 40 μg/mL gentamicin overnight (~20 h). The culture was diluted 1:100 in fresh LB medium, without antibiotic, to an OD600 = 0.25 (0.22–0.30) (~1 h). Aliquots (2 μL) of compound DMSO stock solution or serial dilution were added to the inner wells (i.e., non-periphery rows) of a black, clear bottom 96-well plate. To 12 inner wells, DMSO alone (vehicle) was added to serve as controls (negative and positive). For the six negative control wells (no BHL), 198 μL of bacterial culture plus OdDHL (to achieve 10 μM) were added. […] After incubation, the OD600 and GFP production (excitation at 500 nm, emission at 540 nm) were read for each well using a plate reader. […]

[5] = molecular target: T1, RhlR; settings: P. aeruginosa RhlR reporter systems; reference number not given; cited from earlier work

SMILES: O=C1OCC[C@@H]1NS(=O)(=O)c1cc(Cl)cc(Cl)c1 [Compound 50, 3,5-Cl-BSHL]
- activity profile in RhlR [1]: partial agonist behavior
- Emax [2]: 30%

SMILES: O=C1OCC[C@@H]1NS(=O)(=O)c1ccccc1 [Compound 57]
- max. RhlR inhibition (%) [1]: 93%
- IC50 ([1]; IC50, E. coli JLD271 RhlR reporter, against 10 μM BHL): 715 µM
- antagonism of other LuxR homologues [3]: ~50%

SMILES: CCCC(=O)N[C@H]1CCOC1=O [BHL, N-butanoyl L-homoserine lactone, reference compound]
- EC50 [2]: 10 µM
- IC50 [2]: 8.73 µM
- EC50 [4]: 4.47 µM
- EC50 [5]: 5 to 10 µM

SMILES: O=C1OCC[C@@H]1NS(=O)(=O)Cc1ccc(C(F)(F)F)cc1 [Compound 15, 4-CF3 BnSHL]
- activity profile in RhlR [1]: partial agonist
- max. RhlR inhibition (%) [1]: 35 ^f %
- Emax [2]: 38%

— paper PMC12456999, “Sulfonyl Homoserine Lactones Are Tunable Probes to Inhibit the Quorum Sensing Receptor RhlR and Reduce Swarming Motility in Pseudomonas aeruginosa” (ACS Infectious Diseases, 2025)
